Earlier results on one substance are cited in patent publication US20050031575A1, “Block copolymers” (priority 2001, published 2005).

The data set deals with solid tumours. The settings on record: micelles ranging in size from 20-60 nm that accumulate in solid tumours.

Take “poly(ethylene glycol-aspartate) block copolymer doxorubicin conjugates”: the antitumour activity entry is given as “exhibit antitumour activity”.
